Assay results reported in ChEMBL document CHEMBL1201862, “PubChem BioAssay data set” (2004).
The source made the active and inactive calls.

Assays:
Prothrombin = Prothrombin (Bos taurus, UniProt P00735); assay: thrombin protease inhibitors – biochemical, fluorescence polarization, uHTS hits, dose response (AID 602369); format: functional
[1] = target: 26S proteasome non-ATPase regulatory subunit 14 (Homo sapiens, UniProt O00487); assay: inhibition of proteasome subunit RPN11 – biochemical, fluorescence polarization, uHTS hits, confirmation (AID 602368); format: functional
[2] = target: 72 kDa type IV collagenase (Homo sapiens, UniProt P08253); assay: Dose Response validation of uHTS RPN11 inhibitor hits using a MMP-2 Fluorescence assay.; format: functional
Cytochrome P450 1A2 = target: T1, Cytochrome P450 1A2 (Homo sapiens, UniProt P05177);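 note: PubChem cytochrome P450 panel assay, CYP1A2 panel member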
T1 sequence (P05177 whole entry): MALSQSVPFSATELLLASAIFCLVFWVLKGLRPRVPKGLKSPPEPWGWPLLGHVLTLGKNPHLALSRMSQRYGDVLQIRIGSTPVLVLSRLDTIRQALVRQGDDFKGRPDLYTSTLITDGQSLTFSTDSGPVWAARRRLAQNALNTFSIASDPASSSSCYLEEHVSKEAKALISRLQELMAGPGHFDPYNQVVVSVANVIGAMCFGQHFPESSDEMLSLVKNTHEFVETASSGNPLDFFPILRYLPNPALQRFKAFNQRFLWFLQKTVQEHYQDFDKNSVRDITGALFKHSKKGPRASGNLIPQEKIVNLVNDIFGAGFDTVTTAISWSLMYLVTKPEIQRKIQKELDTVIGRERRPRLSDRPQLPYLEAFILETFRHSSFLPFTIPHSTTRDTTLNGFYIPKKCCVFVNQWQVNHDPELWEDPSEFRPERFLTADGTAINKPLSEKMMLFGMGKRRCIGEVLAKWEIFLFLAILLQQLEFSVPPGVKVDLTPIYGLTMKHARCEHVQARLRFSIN

Cytochrome P450 2D6 = Cytochrome P450 2D6 (Homo sapiens, UniProt P10635);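 note: CYP2D6 member of a cytochrome P450 panel assay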
[3] = blockers of CAL PDZ–TMR peptide complex – biochemical, fluorescence polarization, untagged CAL PDZ, cherry-pick, set 2, dose response (AID 602254); format: functional
Melanocortin receptor 4 = Melanocortin receptor 4 (Homo sapiens, UniProt P32245); assay: inhibitors of MC4R cAMP signaling – cell-based, TR-FRET, biased antagonists, dose response (AID 602298); format: functional;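 note: antagonist potency against agonist-stimulated cAMP production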
[4] = cAMP pathway inhibition in counterscreen cell line – TR-FRET cAMP detection, counter-screen for MC4R biased antagonist project, dose response (AID 602305); format: functional, cell-based;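 note: U2OS cells stimulated with forskolin near its EC80 as the cAMP inducer; potency is for inhibition of forskolin-stimulated cAMP signaling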
[5] = target: T2, Oxysterols receptor LXR-beta (Homo sapiens, UniProt P55055); format: functional, cell-based;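 note: agonist activity at LXR measured by a cell-based luminescence readout across a dose range, run as a counterscreen for daf-12 agonists; HEK293 cells with Gal4-LXR fusion and GAL4-driven luciferase reporter; potency for activation of Gal4-LXR reporter so compounds are agonists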
T2 sequence (P55055 whole entry): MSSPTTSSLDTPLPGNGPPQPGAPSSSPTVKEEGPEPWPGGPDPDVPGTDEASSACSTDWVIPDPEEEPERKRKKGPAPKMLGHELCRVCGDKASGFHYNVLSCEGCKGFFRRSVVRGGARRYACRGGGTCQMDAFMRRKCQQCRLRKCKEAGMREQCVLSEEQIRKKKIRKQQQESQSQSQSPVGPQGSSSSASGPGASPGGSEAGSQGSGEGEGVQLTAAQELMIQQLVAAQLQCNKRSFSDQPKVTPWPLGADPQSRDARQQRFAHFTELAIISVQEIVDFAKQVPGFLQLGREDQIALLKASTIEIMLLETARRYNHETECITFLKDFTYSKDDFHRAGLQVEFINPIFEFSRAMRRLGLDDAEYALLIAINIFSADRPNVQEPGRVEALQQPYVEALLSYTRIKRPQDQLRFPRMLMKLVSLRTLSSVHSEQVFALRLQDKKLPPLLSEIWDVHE

[6] = Luminescence Cell-Based Dose Confirmation HTS to Identify Activators of 5'UTR Stem-Loop Driven Alpha-Synuclein mRNA Translation in H4 Neuroglioblastoma Cells. [Related pubchem assays: 1829 (Project Summary), 1814 (Primary HTS)]; format: functional
H4 = assay: Luminescence Cell-Based Dose Response HTS to Identify Activators of 5'UTR Stem-Loop Driven Prion Protein mRNA Translation in H4 Neuroglioblastoma Cells. [Related pubchem assays: 1829 (Project Summary), 1814 (Primary HTS)]; format: functional; details: Homo sapiens
[7] = Luminescence Cell-Based Dose Response HTS to Identify Activators of Luciferase Translation or Activity in H4 […] Cells. [Related pubchem assays: 1829 (Project Summary), 1814 (Primary HTS)]; format: functional
HeLa = assay: ATP-based viability loss in HeLa cells – cell-based, CellTiter-Glo luminescence, cherry-pick samples, cytotoxicity control for MITF activator project, dose response (AID 540259); format: functional; details: Homo sapiens

Chain of 72 kDa type IV collagenase (P08253 whole entry): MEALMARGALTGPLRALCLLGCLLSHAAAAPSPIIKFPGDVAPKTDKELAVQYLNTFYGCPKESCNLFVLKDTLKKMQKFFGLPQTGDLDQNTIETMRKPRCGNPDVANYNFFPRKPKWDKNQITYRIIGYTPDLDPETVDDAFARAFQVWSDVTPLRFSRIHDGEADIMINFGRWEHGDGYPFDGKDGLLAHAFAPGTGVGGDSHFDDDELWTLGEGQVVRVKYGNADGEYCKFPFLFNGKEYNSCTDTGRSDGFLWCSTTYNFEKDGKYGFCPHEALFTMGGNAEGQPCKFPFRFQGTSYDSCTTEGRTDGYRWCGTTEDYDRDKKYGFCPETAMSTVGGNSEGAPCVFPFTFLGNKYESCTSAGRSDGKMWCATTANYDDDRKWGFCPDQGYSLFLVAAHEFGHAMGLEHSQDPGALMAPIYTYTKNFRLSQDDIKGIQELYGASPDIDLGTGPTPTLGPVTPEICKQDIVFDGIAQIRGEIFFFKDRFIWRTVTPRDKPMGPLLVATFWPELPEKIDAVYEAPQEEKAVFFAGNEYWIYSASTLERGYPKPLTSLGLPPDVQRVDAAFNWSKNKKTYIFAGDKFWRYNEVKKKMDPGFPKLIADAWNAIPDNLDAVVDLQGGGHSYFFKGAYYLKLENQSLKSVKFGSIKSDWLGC
Chain of Cytochrome P450 2D6 (P10635 whole entry): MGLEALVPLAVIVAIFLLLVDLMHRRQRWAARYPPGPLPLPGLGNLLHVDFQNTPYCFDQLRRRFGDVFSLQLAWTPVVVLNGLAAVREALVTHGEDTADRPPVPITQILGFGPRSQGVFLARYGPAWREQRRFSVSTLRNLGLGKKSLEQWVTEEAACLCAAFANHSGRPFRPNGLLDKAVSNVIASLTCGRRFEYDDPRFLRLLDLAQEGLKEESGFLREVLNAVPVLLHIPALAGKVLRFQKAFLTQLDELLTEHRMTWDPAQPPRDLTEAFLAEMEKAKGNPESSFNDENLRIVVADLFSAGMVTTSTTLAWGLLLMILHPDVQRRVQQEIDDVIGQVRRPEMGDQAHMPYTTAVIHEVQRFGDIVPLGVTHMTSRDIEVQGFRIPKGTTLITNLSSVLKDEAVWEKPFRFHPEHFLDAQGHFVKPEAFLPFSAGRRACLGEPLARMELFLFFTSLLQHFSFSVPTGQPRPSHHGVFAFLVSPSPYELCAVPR
Chain of 26S proteasome non-ATPase regulatory subunit 14 (O00487 whole entry): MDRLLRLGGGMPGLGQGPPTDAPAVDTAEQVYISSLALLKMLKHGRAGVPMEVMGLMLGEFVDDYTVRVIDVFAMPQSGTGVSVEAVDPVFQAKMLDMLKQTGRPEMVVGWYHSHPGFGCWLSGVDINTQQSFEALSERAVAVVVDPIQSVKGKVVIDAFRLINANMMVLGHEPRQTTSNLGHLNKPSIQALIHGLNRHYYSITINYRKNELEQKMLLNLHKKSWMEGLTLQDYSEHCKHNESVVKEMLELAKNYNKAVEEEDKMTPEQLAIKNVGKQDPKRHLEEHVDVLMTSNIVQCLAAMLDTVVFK
Chain of Melanocortin receptor 4 (P32245 whole entry): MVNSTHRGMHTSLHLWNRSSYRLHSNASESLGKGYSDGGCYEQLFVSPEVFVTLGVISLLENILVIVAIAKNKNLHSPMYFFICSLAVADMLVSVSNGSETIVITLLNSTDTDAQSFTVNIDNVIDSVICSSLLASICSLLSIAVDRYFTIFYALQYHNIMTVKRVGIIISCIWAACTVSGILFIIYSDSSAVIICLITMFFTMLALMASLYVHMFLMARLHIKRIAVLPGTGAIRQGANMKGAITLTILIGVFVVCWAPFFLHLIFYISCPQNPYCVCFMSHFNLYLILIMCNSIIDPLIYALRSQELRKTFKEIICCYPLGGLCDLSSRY

SMILES: CN1/C(=C\C(=O)COC(=O)Cn2nnc(-c3ccccc3)n2)C(C)(C)c2ccccc21
- IC50 (Prothrombin): 51.6 µM (active)
- IC50 [1]: 34.5 µM (active)
- IC50 [2]: > 100 µM (inactive)
- AC50 (Cytochrome P450 1A2): 1.58 µM (inconclusive)
- AC50 (Cytochrome P450 2D6): 31.6 µM (inconclusive)

SMILES: Cc1cc2ccccc2n1CCNCc1c(C(=O)N2CCOCC2)nc2ccccn12
- AC50 [3]: 110 µM (active)

SMILES: CCOC(=O)c1c(NC(=O)C(C)OC(=O)C2=COCCO2)sc2c1CCCC2 (stereo not drawn)
- IC50 (Melanocortin receptor 4): > 7.18 µM (active)
- IC50 [4]: > 64.6 µM (inactive)

SMILES: Cc1nn(C(=O)c2cccs2)c(N)c1-c1ccccc1
- EC50 [5]: > 67.5 µM (inactive)
- EC50 [6]: 13.7 µM (active)
- EC50 (H4): > 120 µM (not active)
- EC50 [7]: 19 µM (active)
- AC50 (HeLa): 30.1 µM (active)
